According to paper PMC6511888, “Synthesis, Biological Evaluation, and Molecular Modeling Studies of New Thiadiazole Derivatives as Potent P2X7 Receptor Inhibitors” (Frontiers in Chemistry, 2019):

Key:
[1] = tested on: carrageenan-induced paw edema; assay: Carrageenan-induced paw edema in mice; format: in vivo, mouse; conditions: 9f 0.001–1 mg/kg intraperitoneally 1 h before carrageenan, edema measured after 60 min
Description: (§1) Our protocols using Swiss Webster mice 4–5 weeks old adhered to the Ethical Principles in Animal Experimentation adopted by the Brazilian College of Animal Experimentation and approved by the FIOCRUZ Research Ethics Committee (Faria et al., [2018]) (number LW-5814). Mouse paw edema was stimulated with carrageenan (300 μg/paw) saline suspension for 60 min or ATP (10 mg/paw) for 30 min. Treatment with diclofenac (100 μg/kg), oxidized ATP (100 μg/kg), and analog 9f (0.001–1 mg/kg) was intraperitoneally administered 60 min prior to the […] administration of carrageenan or ATP. A plethysmometer (UGO Basil, Italy) was used to measure the edema before inductor injection, and the relative paw edema increased after carrageenan or ATP action.

P2X1R = molecular target: T1, P2X1R (Mus musculus, UniProt P51576); assay: β,γ-meATP-induced intracellular Ca2+ mobilization in J774 cells; format: cell-based; conditions: 100 μM
T1 construct: endogenous in cells; host or cells: J774 cells
T1 sequence (P51576 1-399): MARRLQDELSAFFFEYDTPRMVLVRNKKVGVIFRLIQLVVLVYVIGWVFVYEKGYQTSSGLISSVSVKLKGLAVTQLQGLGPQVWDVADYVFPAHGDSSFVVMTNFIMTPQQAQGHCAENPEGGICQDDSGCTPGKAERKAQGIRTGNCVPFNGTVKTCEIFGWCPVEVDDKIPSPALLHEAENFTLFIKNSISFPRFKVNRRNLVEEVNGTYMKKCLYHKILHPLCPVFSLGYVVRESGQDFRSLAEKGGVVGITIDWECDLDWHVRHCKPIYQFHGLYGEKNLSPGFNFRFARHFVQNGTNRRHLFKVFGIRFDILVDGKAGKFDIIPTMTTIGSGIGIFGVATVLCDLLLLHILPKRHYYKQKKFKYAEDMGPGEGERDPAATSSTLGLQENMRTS
Description: (§2) Mouse peritoneal macrophages, PC12 cells, J774 cells, and HEPG2 cells were analyzed by fluorescence microscopy to measure the intracellular Ca^2+ concentrations ([Ca^2+]i). Cells were incubated with 2 μM Fura-2-AM (Molecular Probes) for 30 min, and the [Ca^2+]i mobilization was measured in the F340/F380 ratios with a FlexStation 3 multimode microplate reader (Molecular Devices). Cells were plated in translucent 96-well plates (BD Falcon) for 15 min and then washed and incubated in a saline solution with 150 NaCl, 5 KCl, 1 MgCl2, 1 CaCl2, and 10 HEPES (pH 7.4) for 30 min before measurements of [Ca^2+]i. The Ca^2+ influx was induced by stimulating cells with P2 receptor agonists. P2 receptor antagonists were added 10 min before P2 receptor agonist addition. […] Ionomycin was considered a positive control, and the other recordings were normalized in relation to the AUC.

P2X3R = assay: α,β-meATP-induced [Ca2+]i shift; format: cell-based; conditions: 100 μM
Description: as §2

ATP-induced paw edema = ATP-induced paw edema in mice; format: in vivo, mouse; conditions: 9f 0.001–1 mg/kg intraperitoneally 1 h before ATP, edema measured after 30 min
Description: as §1

P2X7R = molecular target: T2, P2X7R (Mus musculus, UniProt Q9Z1M0); assay: Whole-cell patch clamp, ATP-induced ionic currents in peritoneal macrophages; format: cell-based; conditions: fixed 500 nM 9f; ATP 100 μM to 25 mM; whole-cell configuration
T2 construct: plated for 24 h before dye uptake assays, whole-cell patch clamp experiments, and IL-1β release assays; endogenous in cells; host or cells: mouse (Swiss Webster) peritoneal macrophages
T2 sequence (Q9Z1M0 1-595): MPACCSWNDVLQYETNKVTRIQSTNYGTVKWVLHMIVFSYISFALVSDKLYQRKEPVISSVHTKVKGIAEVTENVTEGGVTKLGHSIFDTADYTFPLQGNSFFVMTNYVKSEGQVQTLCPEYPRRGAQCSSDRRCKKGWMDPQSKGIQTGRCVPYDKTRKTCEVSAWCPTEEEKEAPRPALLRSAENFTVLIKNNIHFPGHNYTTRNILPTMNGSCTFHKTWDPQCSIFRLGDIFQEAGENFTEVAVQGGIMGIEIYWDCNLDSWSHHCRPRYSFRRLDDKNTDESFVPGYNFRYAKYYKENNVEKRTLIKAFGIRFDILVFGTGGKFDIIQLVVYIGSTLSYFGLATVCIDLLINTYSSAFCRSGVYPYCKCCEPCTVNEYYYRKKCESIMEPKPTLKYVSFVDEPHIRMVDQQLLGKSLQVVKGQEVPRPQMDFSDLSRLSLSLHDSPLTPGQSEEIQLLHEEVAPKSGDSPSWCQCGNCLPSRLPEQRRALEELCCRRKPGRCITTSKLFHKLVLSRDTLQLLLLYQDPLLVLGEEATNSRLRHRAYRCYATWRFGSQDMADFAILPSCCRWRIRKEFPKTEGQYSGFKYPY
Description: The whole-cell configuration was used in peritoneal macrophages as previously described (Faria et al., [2005]). All the experiments used bath and pipette solutions with a series resistance set as 6–11 MΩ. Ionic currents with amplitudes < 1,500 pA were not compensated; however, ionic currents above this level were compensated by 88%. The cell capacitance for peritoneal macrophages was (19 ± 1 pF; n = 86), and the recordings were obtained at a holding potential of −60 mV at 37°C.
The saline composition was as follows (in mM): 150 NaCl, 5 KCl, 1 MgCl2, 1 CaCl2, and 10 HEPES (pH 7.4) for the bath solution and 150 KCl, 5 NaCl, 1 MgCl2, 10 HEPES, and 0.1 EGTA (pH 7.4) for the pipette solution (Faria et al., [2018]).
[…] A perfusion chamber (RC-24 chamber, Warner Instrument Corp) operating at a rate of 1 ml/min was used in all experiments (Faria et al., [2018]).

Effect on β,γ-meATP-induced intracellular Ca2+ mobilization (P2X1R): did not reduce | EC50 of the ATP dose–response curve with fixed inhibitor vs ATP alone (P2X7R): higher
Structure (SMILES): CCOC(=O)c1cnn(-c2nnc(-c3ccccc3Cl)s2)c1N [Compound 9f]
Carrageenan-induced paw edema [1]: dose-dependently decreased | Effect on activity of P2X3R agonist α,β-meATP (P2X3R): did not reduce | ATP-induced paw edema (ATP-induced paw edema): dose-dependently decreased
